Reference: patent US20040166178A1, “3-O-acetyl-11-ketoboswellic acid for relaxing the skin” (L'OREAL, priority 2003, published 2004)

Experiments:
calcium channels = experiment: model of calcium flux; format: cell-based; details: compared with beta-boswellic acid, 3-O-acetylboswellic acid and 11-ketoboswellic acid
Description: The four pentacyclic triterpene acids contained, according to the literature, in extract of Boswellia serrata, namely beta-boswellic acid, 3-O-acetylboswellic acid, 11-ketoboswellic acid and 3-O-acetyl-11-ketoboswellic acid, were tested in a model of calcium flux in order to evaluate their capacity for inhibiting calcium channels and therefore their ability to relax lines and smooth out expression lines.

[1] = test system: human striated muscle cells innervated with explants of spinal cord and spinal ganglia from rat embryos; experiment: nerve-muscle coculture model, inhibition of muscle fibre contractions; format: cell-based; details: for contraction-inhibiting effect: test identical to Example 1
Description: Three extracts of Boswellia serrata were tested on a nerve-muscle coculture model which makes it possible to recreate a motor arc by innovating human striated muscle cells with explants of spinal cord and of spinal ganglia from rat embryos.
Human muscle cells derived from human muscle samples from a healthy donor are seeded in 15 mm-diameter wells (24-well culture dishes). After culturing for 10 days, these cells form a monolayer and fuse. At this stage, spinal cord explants from 13-day-old rat embryos, containing the spinal ganglion, are deposited onto the culture.
The first muscle fibre contractions are observed after coculturing for one week.
A muscle fibre having regular contractions (at least 60 contractions per minute) is then selected in three different culture wells and the number of contractions is counted over 30 seconds using image analysis software. The extracts tested, diluted in ethanol, are then incubated for 60 seconds in these wells, at the concentrations C1 and C2 of 0.005% and 0.01%. At the end of the incubation, the number of contractions is again counted over 30 seconds.
The percentage of inhibited contractions is then determined.

[2] = anti-wrinkle activity in vivo

Compound: CC(=O)O[C@@H]1CC[C@@]2(C)[C@@H](CC[C@]3(C)[C@@H]2C(=O)C=C2[C@@H]4[C@@H](C)[C@H](C)CC[C@]4(C)CC[C@]23C)[C@@]1(C)C(=O)O [3-O-acetyl-11-ketoboswellic acid]
- relaxing effect (capacity for inhibiting calcium channels) (calcium channels): clearly greater than that obtained for the other three acids tested
- contraction-inhibiting effect ([1]; 5 μM): 74.7%
- contraction-inhibiting effect ([1]; 10 μM): 87%

Compound: CN1C(=O)CN=C(c2ccccc2)c2cc(Cl)ccc21 [diazepam, reference compound]
- anti-wrinkle activity [2]: demonstrated in vivo
- muscle fibre contractions ([1]; earlier demonstration by the applicant): inhibited muscle fibre contractions
